The values that follow come from patent US20240268372A1, “Methods and Compositions for Extending Organ and Tissue Preservation” (The General Hospital Corporation, priority 2021, published 2024).

For data set [1], the system named is discarded DCD human livers. The data set can be described thus: Normothermic machine perfusion (NMP) of discarded human livers with emricasan in the perfusate: hepatocellular and cholangiocellular function. From the text: Human liver perfusions: Sixteen human livers from donation after circulatory death, with consent for research, were included in this study after being turned down by all transplant centers in the respective region of procurement. Human livers were procured in standard fashion through two Organ Procurement Organizations (OPO): New England Donor Services (Waltham, MA, USA) and LiveOnNewYork (New York, NY). In addition, one liver was obtained through the International Institute for the Advancement of Medicine (IIAM, Edison, NJ), which originated from the Gift of Life Donor Program (Philadelphia, PA). Informed consent was obtained from donors by the OPO. The Massachusetts General Hospital and Lifespan Institutional Review Boards, as well as the two OPOs and IIAM, approved this study (No. 2011P001496). No organs were procured from prisoners and no vulnerable populations were included in this study.
Procurement techniques based on donation after circulatory death followed standard methods. Donor livers were flushed in situ with University of Wisconsin solution. Total warm ischemic time was defined as the period from extubation to cold flush. Functional WIT was defined as the period from asystole to cold flush. Cold ischemic time was defined from cold flush to initiation of machine perfusion. All livers were transported via ground courier. After arrival to the laboratory under static cold storage, livers underwent standard back bench preparation for machine perfusion.
Grafts were perfused on the Liver Assist device (Organ Assist, Groningen, Netherlands) using a previously described protocol (see, e.g., ref. 14). Briefly, perfusate composition consisted of O+ packed red blood cells, human albumin, Lactated Ringer's solution, and heparin. […] Perfusate, bile, and tissue biopsies were collected and analyzed at multiple time points. Grafts were assessed for adequate hepatocellular and cholangiocellular function. […] Cholangiocellular (biliary) viability metrics were measured according to van Leeuwen (see, e.g., ref. 15). […]

The subject of data set [2] is discarded DCD human livers. The data set can be described thus: Perfusate plasma apoptosis biomarkers, cell-free DNA and cytokines during liver NMP (ELISA kits). As for the experimental part:
With respect to the experimental group (emricasan, EM), 5 consecutive human livers turned down for transplant were enrolled. Emricasan, also known as IDN-6556 (MedChemExpress, Monmouth Junction, NJ), dissolved in DMSO was added to the circulating perfusate prior to initiation of liver perfusion at a dose of 5 mg/kg liver weight (1 mL total volume, 0.05% v/v total perfusate). Vehicle control (1 mL DMSO) was previously incorporated in the control liver perfusions (FIG. 6).
Protein Analysis: Perfusate collected at the indicated time points was centrifuged at 5000 g and the plasma collected and stored at −80° C. for later analysis. Enzyme-linked immunosorbent assays (ELISA) were performed for various proteins according to manufacturers' guidelines.

Data set [3] deals with discarded DCD human livers. The data set can be described thus: Western immunoblot and LC3B immunohistochemistry of liver biopsies during NMP (UPR, autophagy, necroptosis). As for the experimental part:
Sequential wedge biopsies from the right lobe of each liver were performed at indicated intervals, flash frozen in liquid nitrogen, and stored at −80° C. Tissue samples (20 mg) were homogenized and Western immunoblots performed as previously described (see, e.g., ref. 16). A full list of antibodies used is provided below in Table 3.
To compare target protein expression, densitometry quantification was conducted. Both proteins varied across samples and the changes were not consistent between the 2 proteins, with the variation representing the biologic variability in the human liver.
In brief, immunohistochemistry was performed using antibodies directed toward LC3B (Product No. NB100-2220, Novus Biologicals, Littleton, CO, USA). Paraffin sections (6 μm) were deparaffinized with xylene and rehydrated with graded ethanol. Antigen retrieval was performed by sub-boiling in 1×-diluted Dako Target Retrieval Solution for 10 min (DakoCytomation, Inc., Carpinteria, CA). Slides were then quenched in 3% H2O2 and blocked in 2.5% Normal Horse Serum (Vector Labs, Burlingame, CA) before overnight incubation in primary antibody (1:200 dilution) at 4° C. Slides were incubated with a horseradish-peroxidase conjugated secondary rabbit antibody (Vector Laboratories) for 1 hr prior to staining with DAB (Vector Laboratories). Slides were counterstained with hematoxylin. Omission of the primary antibody served as a negative control.

In data set [4] the test system is discarded DCD human livers. The data set can be described thus: RNA sequencing of liver biopsies during NMP (differential expression, IPA, GO).
Protocol: RNA purification and sequencing: Core needle biopsies taken immediately prior to perfusion and after 3 and 6 hours of perfusion were used for transcriptome sequencing. […] The differential gene expression threshold for significance was set to a Benjamini-Hochberg false discovery rate (FDR)<0.05.
In brief, tissues samples from livers taken immediately prior to perfusion and after 3 and 6 hours of perfusion were used for transcriptome sequencing. Core needle biopsies from the right liver lobe were collected in RNAlater solution (Sigma-Millipore, Waltham, MA, USA) and stored overnight at 4° C. Tissue samples were then removed from solution and stored at −80° C. Total RNA was isolated using the RNeasy Mini Kit (Qiagen, Germantown, MD, USA) according to manufacturer guidelines. 500 ng of each sample was sequenced on an Illumina HiSeq 4000 using 9 PCR cycles by GENEWIZ (South Plainfield, NJ, USA). Raw RNA-Seq data files were transferred to the Brown University computing cluster via sFTP and aligned to the human genome build 38 using STAR 2.7.3a (see, e.g., ref. 25). While sequencing was performed in two batches, the alignment was performed on all samples simultaneously using the same settings.
In brief, raw read counts were normalized using the Trimmed Mean of M method following removal of low-count genes (fewer than 10 reads in the smallest library). Differential gene expression analysis was conducted in R (see, e.g., ref. 27) using edgeR (see, e.g., ref. 28). The significance cutoff for differential gene expression was set to a Benjamini-Hochberg false-discovery rate (FDR or q-value)<0.05. Canonical pathway and upstream regulator enrichment analysis was generated through Ingenuity Pathway Analysis (IPA, Qiagen) (see, e.g., ref. 29). […]
Gene ontology (GO) enrichment analysis was performed using the R package GOseq (see, e.g., ref. 31). […] The genes with the highest amount of variance explained by principal component 1, 2, or 3 cumulatively totaling to 10% of the total variance explained by the specified PC were further analyzed.
Data set [5] concerns discarded DCD human livers. Briefly: H&E histology of liver biopsies during NMP. Particulars: EM, IHF and AHF livers. The method, then: Histology and immunohistochemistry: Core needle biopsies taken from the right liver lobe at indicated intervals were fixed in formalin and embedded in paraffin. Hematoxylin and eosin (H&E) stains were performed on all biopsies to assess the degree of necrosis, inflammatory cell infiltrate, and reperfusion injury using a validated scoring system (see, e.g., ref. 17). Immunohistochemistry for LC3 was performed as previously described (see, e.g., ref. 3).

The next data set has as its system rodent LT models. Particulars: drug given at the time of liver procurement; cited from earlier work.
For a further data set, the system named is LT recipients. Particulars: emricasan in preservation flush solution vs placebo group; cited from earlier work.
For data set [6] the following is noted: clinical trials for liver transplant and NASH; cited from earlier work.

Regarding `C[C@H](NC(=O)C(=O)Nc1ccccc1C(C)(C)C)C(=O)N[C@@H](CC(=O)O)C(=O)COc1c(F)c(F)cc(F)c1F` [emricasan], in data set [1] (5 livers treated, 5 mg/kg liver weight in perfusate, NMP), the “number of emricasan-treated livers demonstrating adequate hepatocellular function” value is listed as 4. For the same molecule, the “IRI in cholangiocytes / cholangiocellular function” value in data set [1] (end-ischemic NMP of DCD livers) is “did not appear to improve IRI in cholangiocytes”. Further, the “ischemia-reperfusion injury in hepatocytes” value in data set [1] (treatment during NMP after cold and warm ischemia) is on record as “mitigated”. For the same molecule, the “circulating cell-free DNA (DAMP)” value in data set [2] (NMP, compared to control groups) is “significantly reduced”. Further, in data set [2] (NMP, vs control groups), the “perfusate caspase-3/7 enzyme activity” value is on record as “significantly lower” and the “perfusate level of cleaved cytokeratin 18” value is listed as “significantly lower”. Besides, the “evidence of apoptosis (circulating cleaved cytokeratin 18 and caspase-3/7 activity)” value in data set [2] (after both 3 and 6 hours of NMP) was “significantly decreased”. Also, the “cell-free DNA in perfusate” value in data set [2] (at 1 and 6 hours of NMP) is “significantly lower”. For the same molecule, in data set [2] (compared only to IHF livers), the “circulating interleukin-1β (IL-1β)” value was “lower” and the “circulating tumor necrosis factor-α (TNFα)” value is reported as “lower”. Moreover, in data set [2] (compared to AHF and IHF groups), the “perfusate interferon-γ (IFNG)” value is listed as “significantly lower”, the “perfusate interleukin-6 (IL-6)” value is recorded as “significantly lower” and the “perfusate interleukin-8 (IL-8)” value was “significantly lower”. Further, the “shift of LC3B to granule staining pattern (immunohistochemistry)” value in data set [3] (3 and 6 hr of NMP) was “not observed”. In addition, the induction of necroptosis result in data set [3] (NMP with emricasan) is “did not lead to induction of necroptosis”. Further, in data set [3] (before and during perfusion), the Phospho-MLKL entry is “below the limit of detection”. The “enrichment of IRI canonical pathways (innate immunity, sinusoidal endothelial cell activation), IPA” value in data set [4] (3 and 6 h vs pre-perfusion) is “minimal enrichment”. Besides, the “differentially expressed genes after 3 and 6 hours of NMP vs pre-perfusion” value in data set [4] (compared to both control groups) is listed as “markedly smaller set of DEGs”. In addition, the “upregulation of pro-inflammatory and pro-death genes” value in data set [4] (compared to controls (viable and nonviable livers)) is “decreased upregulation”. In addition, the “inflammatory infiltrate or necrosis (H&E histology)” value in data set [5] is “no significant differences”. In the data set with rodent LT models, the “survival in rodent LT models” value is “improved”. In addition, the “AST and ALT levels in LT recipients” value in the data set with LT recipients is given as “significantly lower”. For the same molecule, in data set [6], the “safety and tolerance profile” value was “excellent”.
